Test results reported in PubChem BioAssay (NCI).
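Grown in 96-well plates, cells were treated for 48 hours with each compound at five concentrations. Insufficient inhibition: endpoint recorded as highest concentration tested. The concentration for 50% growth inhibition is given as GI50. TGI: total growth inhibition.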

Legend:
Assay in all cases: DTP human tumour cell line panel, 48 h
SW-620 colon = system: SW-620 colon
K-562 leukemia = system: K-562 leukemia
HL-60(TB) leukemia = system: HL-60(TB) leukemia
COLO 205 colon = system: COLO 205 colon
MALME-3M melanoma = system: MALME-3M melanoma
BT-549 breast = system: BT-549 breast
SK-MEL-2 melanoma = system: SK-MEL-2 melanoma
RXF 393 renal = system: RXF 393 renal
SNB-75 CNS = system: SNB-75 CNS
MCF7 breast = system: MCF7 breast
SR leukemia = system: SR leukemia
NCI-H226 lung = system: NCI-H226 lung
A549 NSCLC = system: A549 NSCLC
HT29 colon = system: HT29 colon
786-0 renal = system: 786-0 renal
SK-OV-3 ovarian = system: SK-OV-3 ovarian
OVCAR-5 ovarian = system: OVCAR-5 ovarian
MOLT-4 leukemia = system: MOLT-4 leukemia
NCI-H522 lung = system: NCI-H522 lung
PC-3 prostate = system: PC-3 prostate
RPMI-8226 leukemia = system: RPMI-8226 leukemia
MDA-MB-231 breast = system: MDA-MB-231 breast
NCI/ADR-RES ovarian = system: NCI/ADR-RES ovarian
OVCAR-3 ovarian = system: OVCAR-3 ovarian
OVCAR-8 ovarian = system: OVCAR-8 ovarian
TK-10 renal = system: TK-10 renal
UO-31 renal = system: UO-31 renal
T-47D breast = system: T-47D breast

## COC(=O)[C@]12CC[C@@H](C)[C@H](C)[C@@H]1C1=CC[C@@H]3[C@@]4(C)C[C@@H](O)[C@H](O)[C@@](C)(CO)C4=CC[C@@]3(C)[C@]1(C)CC2
SW-620 colon
  GI50: 16.9 µM
  TGI: 34.1 µM
K-562 leukemia
  GI50: 17.5 µM
  TGI: 36.6 µM
HL-60(TB) leukemia
  GI50: 16.8 µM
  TGI: 34.7 µM
COLO 205 colon
  GI50: 17.9 µM
  TGI: 34.4 µM
MALME-3M melanoma
  GI50: 17.5 µM
  TGI: 31.3 µM
BT-549 breast
  GI50: 16.2 µM
  TGI: 31.7 µM
SK-MEL-2 melanoma
  GI50: 17.8 µM
  TGI: 33.1 µM
RXF 393 renal
  GI50: 16.9 µM
  TGI: 34 µM
SNB-75 CNS
  GI50: 14.3 µM
  TGI: 28 µM
MCF7 breast
  GI50: 14.2 µM
  TGI: 31.2 µM
SR leukemia
  GI50: 17.1 µM
  TGI: 37.4 µM
NCI-H226 lung
  GI50: 20.1 µM
  TGI: 40.4 µM
A549 NSCLC
  GI50: 17.3 µM
  TGI: 35.4 µM
HT29 colon
  GI50: 15.9 µM
  TGI: 33.5 µM
786-0 renal
  GI50: 18.5 µM
  TGI: 34.5 µM
SK-OV-3 ovarian
  GI50: 19.7 µM
  TGI: 34.4 µM
OVCAR-5 ovarian
  GI50: 18.3 µM
  TGI: 35.3 µM
MOLT-4 leukemia
  GI50: 15.5 µM
  TGI: 31.7 µM
NCI-H522 lung
  GI50: 16.2 µM
  TGI: 33.6 µM
PC-3 prostate
  GI50: 12.9 µM
  TGI: 27.5 µM
RPMI-8226 leukemia
  GI50: 13.9 µM
  TGI: 34.6 µM
MDA-MB-231 breast
  GI50: 16.3 µM
  TGI: 34.4 µM
NCI/ADR-RES ovarian
  GI50: 16.6 µM
  TGI: 33.9 µM
OVCAR-3 ovarian
  GI50: 18.3 µM
  TGI: 37.8 µM
OVCAR-8 ovarian
  GI50: 15.7 µM
  TGI: 33.8 µM
TK-10 renal
  GI50: 19.4 µM
  TGI: 34.5 µM
UO-31 renal
  GI50: 14.6 µM
  TGI: 30.1 µM
T-47D breast
  GI50: 12.3 µM
  TGI: 27.8 µM
